Data published in patent publication US20060128614A1, “Antimicrobial peptides with reduced hemolysis and methods of their use” (priority 2002, published 2006).
Converted amounts (≈) assume the structure as drawn. Like-named read-outs stand apart in the source and are kept apart here. Non-standard residues stand in square brackets, D forms with d. Residues, ends and D or L forms follow the SMILES beside them. 2Nal = N[C@@H](Cc1ccc2ccccc2c1)C(=O)O

Assays:
[1] = test system: E. coli; assay type: cell-based, Escherichia coli
Protocol: (§1) The in vitro antimicrobial activities of antimicrobial agents were tested using standard NCCLS bacterial and fungi inhibition assays or minimum inhibition concentration (MIC) tests. The MIC value is the lowest concentration of peptide at which the visible growth of test organisms was inhibited and reduced. Overnight cultures of the test organisms were diluted to produce an inoculum containing approximately […] in Meuller-Hinton broth (MHB). From the peptide stock solution, serial dilutions of the peptides into […] were prepared and all wells of a 96-well microtiter plate were subsequently inoculated with the diluted culture of the test organisms. After 18 hours of incubation at 37°, the results were assayed for turbidity as an indicator of cell growth. MIC values for the peptides are shown in Table 3 and Table 4 and FIGS. 1(A), 1(B), 1 (C) and 1 (D) show survival rates for Pac-625 and Pac-626.

[2] = test system: S. aureus; assay type: cell-based, Staphylococcus aureus
Protocol: as §1

[3] = test system: B. subtilis; assay type: cell-based, Bacillus subtilis
Protocol: as §1

[4] = test system: S. epidermidis; assay type: cell-based, Staphylococcus epidermidis
Protocol: as §1

[5] = test system: Candida albicans; assay type: cell-based
Protocol: as §1

[6] = test system: outer membrane of E. coli; assay: NPN uptake assay, outer membrane permeabilization; assay type: cell-based; details: intact cells of E. coli
Protocol: The outer membrane permeabilization activity of the peptide variants was determined by the 1-N-phenylnaphthylamine (NPN) uptake assay, using intact cells of E. coli. […] Since NPN is hydrophobic, it provides a direct measurement of the degree of outer membrane permeability. E. coli take up little or no NPN in a general condition. In the presence of permeabilizer compounds (EDTA, polymyxin B, Neomycin, or antimicrobial peptides), NPN partitioned into the bacterial outer membrane results in an increase in fluorescence. Fluorescence will vary with the concentration of peptide.
One ml of overnight culture was used to inoculate 50 ml of media and incubated at 37° C. with shaking. The culture was permitted to grow to an OD600 of 0.4 to 0.6, cells were spun down at 3500 rpm for 10 minutes, washed, and re-suspended in buffer to an OD600 of 0.5. The OD600 was recorded, 1 ml of cells (OD600=0.5) was added to the cuvette and measured after 2-5 seconds. 20 μl NPN 0.5 mM, shaken to mix, was added and measured after 2-5 seconds. 10 ul antibiotic 100× desired final concentration was added, shaken to mix, and measured until the maximal value was reached within 1 to 5 minutes. The concentration of peptide leading to 50% of the maximum increase in NPN uptake was recorded as the P50.

[7] = test system: human red blood cells (RBC); assay type: cell-based
Protocol: Pac-401, Pac-403, Pac-625 and Pac-626 were tested for hemolysis against human red blood cells (RBC). The RBCs with EDTA were rinsed 3 times with PBS (800 g, 10 min) and re-suspended in PBS. The RBCs were diluted into 10% with phosphate-buffered saline and placed […] into each eppendorf. The peptides dissolved in PBS were then added to 50 μl of 10% solution of RBCs and incubated for an hour at 37° C. (final RBC concentration, 5% v/v). The samples were centrifuged at 800 g for 10 min […]. Various concentrations of peptides were incubated with pretreated RBC and the percentage of hemolysis determined.

[8] = test system: B. cereus; assay type: cell-based, Bacillus cereus
Protocol: as §1

[9] = test system: Gram-positive and Gram-negative bacteria; assay: Antimicrobial activity of Trp template peptides; assay type: cell-based; details: qualitative statement
[10] = qualitative statement

MIC against E. coli [1] [µg/mL] | MIC against E. coli ([1]; 18 h) [µg/mL] | MIC against S. aureus [2] [µg/mL] | MIC against S. aureus ([2]; 18 h) [µg/mL] | MIC B. subtilis [3] [µg/mL] | MIC S. epidermidis [4] [µg/mL] | MIC Candida albicans [5] [µg/mL] | % lysis @ 5 μg/ml [7] [%] | % lysis @ 50 μg/ml [7] [%] | % lysis @ 500 μg/ml [7] [%] | MIC S. aureus [2] [µg/mL] | MIC B. cereus [8] [µg/mL] | Compound | P50 (concentration of peptide leading to 50% of the maximum increase in NPN uptake) [6] [µg/mL] | antimicrobial activity [9] | hemolytic activity [10]
2 (≈ 1.37 µM) | 2 (≈ 1.37 µM) | 4 (≈ 2.74 µM) | 4 (≈ 2.74 µM) | 4 (≈ 2.74 µM) | 2 (≈ 1.37 µM) | 16 (≈ 11 µM) | 0.82 | 7.3 | 15 |  |  | CC[C@H](C)[C@H](NC(=O)[C@H](Cc1ccc2ccccc2c1)NC(=O)[C@H](CCCNC(=N)N)NC(=O)[C@@H](NC(=O)[C@H](Cc1ccc2ccccc2c1)NC(=O)[C@H](CCCNC(=N)N)NC(=O)[C@H](CCCNC(=N)N)NC(=O)[C@H](Cc1ccc2ccccc2c1)NC(=O)[C@H](CCCCN)NC(C)=O)C(C)C)C(N)=O [Pac-625 L, K (2-Nal) R R (2-Nal) V R (2-Nal) I] (Ac-K[2Nal]RR[2Nal]VR[2Nal]I-NH2) | 2 |  | 
4 (≈ 2.74 µM) | 4 (≈ 2.74 µM) | 4 (≈ 2.74 µM) | 4 (≈ 2.74 µM) |  |  | 32 (≈ 21.9 µM) | 0.81 | 7.2 | 14 | 4 (≈ 2.74 µM) | 4 (≈ 2.74 µM) | CC[C@H](C)[C@H](NC(C)=O)C(=O)N[C@@H](Cc1ccc2ccccc2c1)C(=O)N[C@@H](CCCNC(=N)N)C(=O)N[C@H](C(=O)N[C@@H](Cc1ccc2ccccc2c1)C(=O)N[C@@H](CCCNC(=N)N)C(=O)N[C@@H](CCCNC(=N)N)C(=O)N[C@@H](Cc1ccc2ccccc2c1)C(=O)N[C@@H](CCCCN)C(N)=O)C(C)C [Pac-626 L, I (2-Nal) R V (2-Nal) R R (2-Nal) K] (Ac-I[2Nal]RV[2Nal]RR[2Nal]K-NH2) | 2 |  | 
 |  |  |  |  |  |  |  |  |  |  |  | CC[C@H](C)[C@H](NC(=O)[C@H](Cc1c[nH]c2ccccc12)NC(=O)[C@H](CCCNC(=N)N)NC(=O)[C@@H](NC(=O)[C@H](Cc1c[nH]c2ccccc12)NC(=O)[C@H](CCCNC(=N)N)NC(=O)[C@H](CCCNC(=N)N)NC(=O)[C@H](Cc1c[nH]c2ccccc12)NC(=O)[C@H](CCCCN)NC(C)=O)C(C)C)C(N)=O [Pac-525, Ac-KWRRWVRW1-NH2] (Ac-KWRRWVRWI-NH2) |  | improved activity against both Gram-positive and Gram-negative bacteria | reduced hemolytic activity
